The text below walks through data of patent US5462926A (Biomeasure, Inc., priority 1993, dated 1995).

Assay [1] concerns the target T1, NMB receptors on C-6 cells (Rattus norvegicus, UniProt P24053).
T1 construct: endogenous in cells; host or cells: rat glioblastoma C-6 cells
T1 sequence (P24053 1-390): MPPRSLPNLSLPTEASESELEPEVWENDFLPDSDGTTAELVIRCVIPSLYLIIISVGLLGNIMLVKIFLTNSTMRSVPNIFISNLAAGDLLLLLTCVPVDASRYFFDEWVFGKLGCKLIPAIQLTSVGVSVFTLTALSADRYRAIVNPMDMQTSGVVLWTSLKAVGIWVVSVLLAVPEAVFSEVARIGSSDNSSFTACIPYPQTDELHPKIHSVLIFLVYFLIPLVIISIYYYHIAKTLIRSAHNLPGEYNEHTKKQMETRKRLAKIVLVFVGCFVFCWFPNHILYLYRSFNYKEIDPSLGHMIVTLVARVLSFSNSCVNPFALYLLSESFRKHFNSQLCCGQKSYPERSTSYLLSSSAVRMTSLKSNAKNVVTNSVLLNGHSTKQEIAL
The experiment in a line: Binding of 125I-[D-Tyr0]NMB to C-6 glioblastoma cells. Particulars: for Ki: Ki by Cheng method, read-out: Ki 125I-NMB Binding, NMB Receptor, C-6 Cells. The procedure:
Binding of ^125 I-[D-Tyr^0 ]NMB to C-6 glioblastoma and NMB-R transfected cells
Binding studies using rat glioblastoma C-6 or NMB-R transfected cells were performed as described previously [Benya, R. V. et al. Mol. Pharmacol. 42:1058 (1992); and Wang, L-H. et al. Biochem. J. 286:641 (1992)] by suspending disaggregated cells in binding buffer, which was composed of standing buffer ([…], 7.7 mM KCl, 1.0 mM EGTA, 0.02% soybean trypsin inhibitor) additionally containing 50 mM HEPES, 1 mM MgCl2, 1.5 mM CaCl2, 2.2 mM KH2 PO4, 0,015% glutamine, and 0.2% BSA (w/v) (pH 7.4). Incubations contained 75 pM ^125 I-[D-Tyr^0 ]NMB and 15×10^6 C-6 cells/ml or 2×10^6 NMB-R transfected cells/ml, for 60 min at 22° C. Nonsaturable binding of ^125 I-[D-Tyr^0 ]NMB was the amount of radioactivity associated with C-6 cells or NMB-R transfected cells when the incubation mixture contained […] NMB. Nonsaturable binding was<15% of total binding in all experiments; all values are reported herein as saturable binding (i.e., total minus nonsaturable binding).

The target in a further assay is T2, rat NMB receptor (Rattus norvegicus, UniProt P24053).
T2 construct: a full length NMB-preferring bombesin receptor clone generated from rat esophagus; expressed in transfected cells
T2 sequence (P24053 1-390): T1 sequence (P24053 1-390)
The experiment in a line: Binding of 125I-[D-Tyr0]NMB to NMB-R transfected BALB 3T3 cells. Particulars: for fold decrease in NMB receptor affinity compared with cyclo SS-octa (#1): structure-function comparison from Table 1. Here is the method: (§1) Cells were passaged every 3-4 days at confluence, using 0.1% trypsin in 1 mM EDTA. Rat glioblastoma C-6 tumor cells were maintained similarly and were passaged weekly at confluence. Both cell lines were cultured at 37° C. in a 5% CO2 atmosphere. Rat AR 42J pancreatic acinar cells were cultured in Dulbecco's modified Eagle's medium (DMEM) without antibiotics and supplemented with 10% (vol/vol) fetal calf serum. The incubation atmosphere consisted of 10% CO2 -90% humidified air at 37° C.

In assay [2] the target is T3, GRP receptors on rat pancreatic acini (Rattus norvegicus, UniProt P52500).
T3 construct: from tissue; host or cells: dispersed pancreatic acini
T3 sequence (P52500 whole entry): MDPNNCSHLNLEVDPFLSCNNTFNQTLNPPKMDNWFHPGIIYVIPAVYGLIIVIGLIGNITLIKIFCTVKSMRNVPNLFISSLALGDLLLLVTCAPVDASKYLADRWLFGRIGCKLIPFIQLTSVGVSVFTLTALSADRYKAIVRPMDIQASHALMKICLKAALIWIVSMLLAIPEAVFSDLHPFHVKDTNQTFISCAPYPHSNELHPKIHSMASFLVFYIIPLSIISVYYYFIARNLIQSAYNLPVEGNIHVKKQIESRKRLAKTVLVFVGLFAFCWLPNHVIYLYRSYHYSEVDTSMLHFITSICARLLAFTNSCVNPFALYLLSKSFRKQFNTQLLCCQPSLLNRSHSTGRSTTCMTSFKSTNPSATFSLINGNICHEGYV
In words: Binding of 125I-[Tyr4]bombesin to pancreatic acini. Particulars: read-out: Ki 125I-[Tyr4]Bn Binding, GRP Receptor, Rat Pancreatic Acini; Ki by Cheng method.
Source text: Nonsaturable binding was<10% of total binding in all experiments.

A further assay has as its target T4, somatostatin receptors (Rattus norvegicus, UniProt P30680).
T4 construct: endogenous in cells; host or cells: rat AR 42J pancreatic acinar tumor cell membranes
In words: Somatostatin membrane receptor assay, 125I-[Tyr11]SS-14, AR 42J cell membranes. The assay is classed as binding. Particulars: Cheng method; table prints no unit (b360 gives nM for a Table 4 value); read-out: affinity, 125I-[Tyr11]SS-14, AR 42J Cell Membranes (somatostatin receptors).

The target of another assay is T5, mu opioid receptors (Rattus norvegicus, UniProt P33535).
T5 construct: rat forebrain (TRH, mu and delta opioid membrane assays); from tissue; host or cells: rat forebrain membranes
T5 sequence (P33535 whole entry): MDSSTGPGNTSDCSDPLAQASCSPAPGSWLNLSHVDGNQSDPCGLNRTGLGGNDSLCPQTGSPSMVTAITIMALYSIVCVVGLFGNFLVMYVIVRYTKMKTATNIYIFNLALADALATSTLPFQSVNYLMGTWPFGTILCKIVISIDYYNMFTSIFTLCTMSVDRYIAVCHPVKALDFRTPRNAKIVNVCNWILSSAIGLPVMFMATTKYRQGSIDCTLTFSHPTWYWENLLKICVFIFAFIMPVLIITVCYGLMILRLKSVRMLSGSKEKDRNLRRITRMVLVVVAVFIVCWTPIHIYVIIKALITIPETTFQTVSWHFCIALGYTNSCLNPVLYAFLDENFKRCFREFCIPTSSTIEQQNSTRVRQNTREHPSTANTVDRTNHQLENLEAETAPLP
The experiment in a line: Mu opioid membrane assay, [3H]DAGO, rat forebrain membranes. The assay is classed as binding.

The target of the next assay is T6, NMB receptor (Rattus norvegicus, UniProt P24053).
T6 sequence (P24053 1-390): T1 sequence (P24053 1-390)
In words: [3H]inositol phosphates in NMB-R transfected cells (alone or NMB-stimulated). The assay is classed as cell-based. Also noted: a full length NMB-preferring bombesin receptor clone generated from rat esophagus; expressed in transfected cells. Particulars: NMB-R transfected cells; for [3H]IP, analog Alone (10 μM): analog 10 μM alone, control 13 ± 3; for [3H]IP, analog Plus NMB (3 nM): analog 10 μM plus NMB 3 nM, NMB without analog 186 ± 58. The procedure:
as §1, with “As described previously [Wada, E., et al. Neuron 6:421 (1991)], BALB 3T3 cells expressing a stably transfected rat NMB receptor (NMB-R transfected cells) were obtained using calcium phosphate precipitation of a full length NMB-preferring bombesin receptor clone generated from rat esophagus and subcloned into a modified version of the pCD2 plasmid. Cells” for “Cells”
Measurement of phosphoinositides
Total phosphoinositides in C-6 cells and in NMB-R transfected cells were determined as described previously, with minor modifications [Benya, R. V. et al. Mol. Pharmacol. 42:1058 (1992); and Wang, L-H. et al. Biochem. Jo 286:641 (1992)]. Cells were grown to confluence in 24-well plates and then loaded with 100 μCi/ml myo-[2-^3 H]inositol in Dulbecco's modified essential medium with 2% fetal bovine serum at 37° C. for 48 hrs. Cells were washed and incubated in phosphoinositide buffer (standard buffer additionally containing 10 mM LiCl, 20 mM HEPES, 2 mM CaCl2, 2% BSA, and 1.2 mM MgSO4) for 15 min and then for 60 min at 37° C. with agonists at various concentrations or with 3 nM NMB (a half-maximal effective concentration) and possible antagonists at different concentrations. Reactions were halted using ice-cold 1% HCl in methanol, and the inositol phosphates (IP) were isolated as described previously [Bologna, M. et al. Cancer 63:1714 (1989); and Endo, T. et al. J. Endocrinolo 131:313 (1991)]. Briefly, after loading of the anion exchange column, free [^3 H]glycerophosphorylinositol was removed by washing with 5 mM disodium tetraborate in 60 mM sodium formate. Total [^3 H]inositol phosphates were then eluted using 100 mM formic acid in 1.0M ammonium formate as described previously [Benya, R. V. et al. Mol. Pharmacol. 42:1058 (1992); and Wang, L-H. et al. Biochem. J. 286:641 (1992 )].

[3] abbreviates: NMB-R transfected BALB 3T3 cells, Ki by Cheng method, read-out: Ki 125I-NMB Binding, NMB Receptor, Transfected Cells.
[4] abbreviates: 3 nM NMB, read-out: IC50 NMB-stimulated [3H]IP, NMB Receptor, Transfected Cells.
Where [5] appears, read: Cheng method, unit inferred, read-out: affinity, [3H]DAGO, Rat Forebrain membranes (mu opioid receptors).

Structures are written as SMILES. Where two headings read alike, the source gives them in different places. Where a SMILES comes first, the peptide text is derived from it. Bridges are numbered along the chain shown (N, C = ends). [ ]: non-standard residue; d: D form. 2Nal = N[C@@H](Cc1ccc2ccccc2c1)C(=O)O; d2Nal = N[C@H](Cc1ccc2ccccc2c1)C(=O)O

T4 sequence (P30680 whole entry): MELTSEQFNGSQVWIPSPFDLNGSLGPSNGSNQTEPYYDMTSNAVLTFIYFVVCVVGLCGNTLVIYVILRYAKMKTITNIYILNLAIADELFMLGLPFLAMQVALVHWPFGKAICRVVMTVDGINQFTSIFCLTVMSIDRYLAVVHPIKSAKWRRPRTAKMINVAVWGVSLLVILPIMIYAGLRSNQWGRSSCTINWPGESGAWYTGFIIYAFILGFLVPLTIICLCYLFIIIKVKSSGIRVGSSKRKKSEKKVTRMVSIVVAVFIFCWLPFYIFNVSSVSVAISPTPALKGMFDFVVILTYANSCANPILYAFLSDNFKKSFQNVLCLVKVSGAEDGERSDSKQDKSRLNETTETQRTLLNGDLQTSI

On to `CC(C)[C@@H]1NC(=O)[C@H](CCCCN)NC(=O)[C@@H](Cc2c[nH]c3ccccc23)NC(=O)[C@H](Cc2ccc(O)cc2)NC(=O)[C@@H](NC(=O)[C@H](N)Cc2ccc3ccccc3c2)CSSC[C@@H](C(=O)N[C@@H](Cc2ccc3ccccc3c2)C(N)=O)NC1=O` [Analog #1, H2 -D-Nal-Cys-Tyr-D-Trp-Lys-Val-Cys-Nal-NH2] (H-[d2Nal]CY[dW]KVC[2Nal]-NH2; disulfide 2-7), for which the Ki in assay [1] worked out at 59 ± 9 nM; at rat NMB receptor (setting [3]) it was 216 ± 36 nM; in assay [2], 18300 ± 2110 nM; on somatostatin receptors, 0.8 ± 0.5 nM; on mu opioid receptors (rat forebrain membranes, read-out: affinity, inhibition of [3H]DAGO binding to mu opioid receptors), 430 ± 130 nM. Besides, the dissociation constant (Kd) came to 59 nM in assay [1] (read-out: Kd, inhibition of 125I-[D-Tyr0]NMB binding, glioblastoma C-6 cells) and 216 nM at rat NMB receptor (NMB-R transfected 3T3 cells, read-out: Kd, inhibition of 125I-[D-Tyr0]NMB binding, NMB-R transfected 3T3 cells). For the same compound, the “concentration causing complete inhibition of 125I-NMB binding” value at rat NMB receptor (NMB-R transfected cells) was 3 µM. For the same compound, the “concentration causing detectible inhibition of 125I-NMB binding” value at rat NMB receptor (NMB-R transfected cells) was 0.1 µM. For the same compound, the type of antagonism result at rat NMB receptor (NMB-R transfected cells, 0.5 μM) is recorded as “competitive antagonist”. Further, the IC50 at rat NMB receptor (NMB-R transfected cells, read-out: half-maximal inhibition of 125I-NMB binding) was determined as 216 nM; on NMB receptor (setting [4]), 0.895 ± 0.098 µM. Besides, at NMB receptor, the “concentration causing detectible inhibition of NMB-stimulated [3H]IP” value was 0.3 µM. Further, the “effect at 10 μM on NMB-stimulated increase in [3H]IP” value on NMB receptor (10 μM, 3 nM NMB) is “completely inhibited”. For the same compound, at NMB receptor, the “[3H]IP, analog Alone (10 μM)” value was 12 ± 2 dym × 10^3. Besides, at NMB receptor, the “[3H]IP, analog Plus NMB (3 nM)” value came out at 8 ± 4 dym × 10^3. Further, the “slope of Schild regression” value on NMB receptor (not significantly different from unity) is listed as 1.1(+0.2).

As for `C[C@@H](O)[C@H](NC(=O)[C@@H]1CSSC[C@H](NC(=O)[C@H](N)Cc2ccc3ccccc3c2)C(=O)N[C@@H](Cc2ccc(O)cc2)C(=O)N[C@H](Cc2c[nH]c3ccccc23)C(=O)N[C@@H](CCCCN)C(=O)N[C@@H](Cc2ccc3ccccc3c2)C(=O)N1)C(N)=O` [Analog #2, H2 -D-Nal-Cys-Tyr-D-Trp-Lys-Nal-Cys-Thr-NH2], the Ki in assay [1] worked out at 226 ± 36 nM; on rat NMB receptor (setting [3]), 772 ± 94 nM; in assay [2] it was 16300 ± 3820 nM; at somatostatin receptors, 0.5 ± 0.1 nM; at mu opioid receptors (setting [5]), 1.9 ± 0.7 nM. Besides, on rat NMB receptor, the “fold decrease in NMB receptor affinity compared with cyclo SS-octa (#1)” value is recorded as 4 fold. In addition, the IC50 at NMB receptor (setting [4]) came out at 6.67 ± 0.435 µM. Moreover, on NMB receptor, the “[3H]IP, analog Alone (10 μM)” value was 11 ± 2 dym × 10^3. The “[3H]IP, analog Plus NMB (3 nM)” value at NMB receptor is listed as 39 ± 7 dym × 10^3.

With `CC(C)[C@@H]1NC(=O)[C@H](CCCCN)NC(=O)[C@@H](Cc2c[nH]c3ccccc23)NC(=O)[C@H](Cc2ccc(O)cc2)NC(=O)[C@@H](NC(=O)[C@H](N)Cc2ccccc2)CSSC[C@@H](C(=O)N[C@@H](Cc2ccc3ccccc3c2)C(N)=O)NC1=O` [Analog #4, H2 -D-Phe-Cys-Tyr-D-Trp-Lys-Val-Cys-Nal-NH2] (H-[dF]CY[dW]KVC[2Nal]-NH2; disulfide 2-7), the Ki is 848 ± 191 nM in assay [1]; 818 ± 68 nM on rat NMB receptor (setting [3]); 21900 ± 4260 nM in assay [2]; 0.24 ± 0.13 nM at somatostatin receptors; 650 ± 130 nM on mu opioid receptors (setting [5]). The “fold decrease in NMB receptor affinity compared with cyclo SS-octa (#1)” value on rat NMB receptor lay within 4 to 7 fold. Moreover, on NMB receptor (setting [4]), the IC50 amounted to 3.76 ± 0.568 µM. Moreover, the “[3H]IP, analog Alone (10 μM)” value on NMB receptor was 13 ± 1 dym × 10^3. Moreover, at NMB receptor, the “[3H]IP, analog Plus NMB (3 nM)” value is reported as 33 ± 4 dym × 10^3.

As for `C[C@@H](O)[C@@H]1NC(=O)[C@H](CCCCN)NC(=O)[C@@H](Cc2c[nH]c3ccccc23)NC(=O)[C@H](Cc2ccc(O)cc2)NC(=O)[C@@H](NC(=O)[C@H](N)Cc2ccccc2)CSSC[C@@H](C(=O)N[C@@H](Cc2ccc3ccccc3c2)C(N)=O)NC1=O` [Analog #7, H2 -D-phe-Cys-Tyr-D-Trp-Lys-Thr-Cys-Nal-NH2] (H-[dF]CY[dW]KTC[2Nal]-NH2; disulfide 2-7), the Ki was 1450 ± 78 nM in assay [1]; 4360 ± 328 nM on rat NMB receptor (setting [3]); 3900 to 4400 nM on rat NMB receptor (NMB-R transfected cells, value or range given for a group, read-out: K1, 125I-NMB binding to NMB-R transfected cells (text)); 31000 ± 4650 nM in assay [2]; 0.86 ± 0.23 nM on somatostatin receptors; 200 nM at mu opioid receptors (setting [5]). In addition, the “fold by which cyclo SS-octa is more potent than the analog, 125I-NMB binding” value on rat NMB receptor (NMB-R transfected cells) is listed as 18 fold. The IC50 at NMB receptor (setting [4]) was 36.2 ± 4.97 µM; on NMB receptor (3 nM NMB, read-out: IC50 NMB-stimulated [3H]IP, Transfected Cells (values in μM)) it was over 10 µM. In addition, at NMB receptor, the “[3H]IP, analog Alone (10 μM)” value amounted to 15 ± 1 dym × 10^3. At NMB receptor, the “[3H]IP, analog Plus NMB (3 nM)” value turned out to be 99 ± 24 dym × 10^3.

By Kd is commonly meant a measure of binding affinity in units of concentration.
